Measurements published in US9913843B2, “Protein kinase C inhibitors and uses thereof” (Rigel Pharmaceuticals, Inc., priority 2012, dated 2018).
Where two headings read alike, the source gives them in different places.

System: PKC mediated IL-2 production in human primary T cells
Test: IL-2 ELISA, human primary T cell, anti CD3+CD28+ (whole cell functional assay for PKC mediated IL-2 production)
Assay type: cell-based
How it was run: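 Primary human T cells (PBMC-derived, expanded on plate-bound anti-CD3/CD28 with IL-2, then IL-2-washed) were pre-incubated 1 h at 37 °C with compound, then stimulated on 1 μg/ml anti-CD3 plus 5 μg/ml anti-CD28. After 24 h at 37 °C, secreted IL-2 was measured by ELISA; counter assay used 0.5 ng/ml PMA plus 0.1 μM ionomycin (final).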

[1] = 24 h, human primary T cells stimulated with anti-CD3 + anti-CD28, IL-2 by ELISA, read-out: IC50 for blocking IL-2 production
[2] = human primary T cells stimulated with anti-CD3 + anti-CD28, 24 h, IL-2 by ELISA, 8 pt, read-out: IL2 ELISA, Human primary T cell, anti-CD3 + CD28, 8 pt (IC50)

Row | SMILES | IC50 [1] | IC50 [2]
1 | CC1(C)Oc2cc(Nc3ncc(F)c(NC[C@@H]4CCCN5CCCC[C@H]45)n3)cnc2N(CC2CC2)C1=O [Compound 31, 7-(4-(((1S,9aR)-octahydro-1H-quinolizin-1-yl)methylamino)-5-fluoropyrimidin-2-ylamino)-4-(cyclopropylmethyl)-2,2-dimethyl-2H-pyrido[3,2-b][1,4]oxazin-3(4H)-one] | < 30 µM | 0.359 µM
2 | Cn1nnn(-c2cc(Nc3ncc(C#N)c(NC[C@@H]4CCCN5CCCC[C@H]45)n3)c(F)cc2OCC2COCCO2)c1=O (stereo partly drawn) [Compound 131, 2-((4-((1,4-dioxan-2-yl)methoxy)-2-fluoro-5-(4-methyl-5-oxo-4,5-dihydro-1H-tetrazol-1-yl)phenyl)amino)-4-((((1S,9aR)-octahydro-2H-quinolizin-1-yl)methyl)amino)pyrimidine-5-carbonitrile] | < 30 µM | 1.3 µM
3 | Cc1ccc(Nc2nccc(NC[C@@H]3CCCN4CCCC[C@H]34)n2)cc1-n1cnnn1 [Compound 47, N4-(((1S,9aR)-octahydro-1H-quinolizin-1-yl)methyl)-N2-(4-methyl-3-(1H-tetrazol-1-yl)phenyl)pyrimidine-2,4-diamine] | < 30 µM | 0.649 µM
4 | COc1cnc(Nc2ccc(C)c(-n3cnnn3)c2)nc1NC[C@@H]1CCCN2CCCC[C@H]12 [Compound 73, N4-(((1S,9aR)-octahydro-1H-quinolizin-1-yl)methyl)-5-methoxy-N2-(4-methyl-3-(1H-tetrazol-1-yl)phenyl)pyrimidine-2,4-diamine] | < 30 µM | 3.27 µM
5 | Cn1nnn(-c2cc(Nc3ncc(Cl)c(NC[C@@H]4CCCN5CCCC[C@H]45)n3)c(F)cc2OCC(C)(C)O)c1=O [Compound 155, 1-(5-((5-chloro-4-((((1S,9aR)-octahydro-2H-quinolizin-1-yl)methyl)amino)pyrimidin-2-yl)amino)-4-fluoro-2-(2-hydroxy-2-methylpropoxy)phenyl)-4-methyl-1,4-dihydro-5H-tetrazol-5-one] | < 30 µM | 0.136 µM
6 | Cc1ccc(Nc2ncc(C)c(NC[C@@H]3CCCN4CCCC[C@H]34)n2)cc1C#N [Compound 67, 5-(4-(((1S,9aR)-octahydro-1H-quinolizin-1-yl)methylamino)-5-methylpyrimidin-2-ylamino)-2-methylbenzonitrile] | < 30 µM | 1.08 µM
7 | Cn1nnn(-c2cc(Nc3ncc(C#N)c(NC[C@@H]4CCCN5CCCC[C@H]45)n3)c(F)cc2O)c1=O [Compound 128, 2-((2-fluoro-4-hydroxy-5-(4-methyl-5-oxo-4,5-dihydro-1H-tetrazol-1-yl)phenyl)amino)-4-((((1S,9aR)-octahydro-2H-quinolizin-1-yl)methyl)amino)pyrimidine-5-carbonitrile] | < 30 µM | 1.94 µM
8 | N#Cc1cc(Nc2ncc(Cl)c(NCC3CCCN4CCCCC34)n2)ccc1C1CC1 [Compound 5, 5-(4-(((1S,9aR)-octahydro-1H-quinolizin-9-yl)methylamino)-5-chloropyrimidin-2-ylamino)-2-cyclopropylbenzonitrile] | < 30 µM | 0.12 µM
9 | Cc1nnnn1-c1cc(Nc2ncc(C(F)(F)F)c(NC[C@@H]3CCCN4CCCC[C@H]34)n2)ccc1F [Compound 103, N2-(4-fluoro-3-(5-methyl-1H-tetrazol-1-yl)phenyl)-5-(trifluoromethyl)-N4-(((1S,9aR)-octahydro-1H-quinolizin-1-yl)methyl)pyrimidine-2,4-diamine] | < 30 µM | 26.6 µM
10 | Cc1ccc(Nc2ncc(F)c(NC[C@@H]3CCCN4CCCC[C@H]34)n2)cc1C#N [Compound 9, 5-(4-(((1S,9aR)-octahydro-1H-quinolizin-1-yl)methylamino)-5-fluoropyrimidin-2-ylamino)-2-methylbenzonitrile] | < 30 µM | 0.195 µM
11 | COc1cc(Nc2ncc(OC)c(NC[C@@H]3CCCN4CCCC[C@H]34)n2)cc(OC)c1 [Compound 83, N4-(((1S,9aR)-octahydro-1H-quinolizin-1-yl)methyl)-5-methoxy-N2-(3,5-dimethoxyphenyl)pyrimidine-2,4-diamine] | < 30 µM | 3.87 µM
12 | COc1ccc(Nc2ncc(Cl)c(NC[C@@H]3CCCN4CCCC[C@H]34)n2)cc1-n1nnnc1C [Compound 37, 5-chloro-N4-(((1S,9aR)-octahydro-1H-quinolizin-1-yl)methyl)-N2-(4-methoxy-3-(5-methyl-1H-tetrazol-1-yl)phenyl)pyrimidine-2,4-diamine] | < 30 µM | 0.0872 µM
13 | Cn1nnn(-c2cc(Nc3ncc(C#N)c(NC[C@@H]4CCCN5CCCC[C@H]45)n3)c(F)cc2OC(C)(C)CO)c1=O [Compound 151, 2-((2-fluoro-4-((1-hydroxy-2-methylpropan-2-yl)oxy)-5-(4-methyl-5-oxo-4,5-dihydro-1H-tetrazol-1-yl)phenyl)amino)-4-((((1S,9aR)-octahydro-2H-quinolizin-1-yl)methyl)amino)pyrimidine-5-carbonitrile] | < 30 µM | 0.305 µM
14 | COc1cnc(Nc2ccc(C3CC3)c(C#N)c2)nc1NC[C@@H]1CCCN2CCCC[C@H]12 [Compound 81, 5-(4-(((1S,9aR)-octahydro-1H-quinolizin-1-yl)methylamino)-5-methoxypyrimidin-2-ylamino)-2-cyclopropylbenzonitrile] | < 30 µM | 1.31 µM
15 | Cc1nnnn1-c1ccc(F)c(Nc2ncc(F)c(NC[C@@H]3CCCN4CCCC[C@H]34)n2)c1 [Compound 7, 5-fluoro-N2-(2-fluoro-5-(5-methyl-1H-tetrazol-1-yl)phenyl)-N4-(((1S,9aR)-octahydro-1H-quinolizin-1-yl)methyl)pyrimidine-2,4-diamine] | < 30 µM | 0.428 µM
16 | CCOC(=O)C(C)(C)Oc1cc(F)c(Nc2ncc(C#N)c(NC[C@@H]3CCCN4CCCC[C@H]34)n2)cc1-n1nnn(C)c1=O [Compound 150, ethyl 2-(4-((5-cyano-4-((((1S,9aR)-octahydro-2H-quinolizin-1-yl)methyl)amino)pyrimidin-2-yl)amino)-5-fluoro-2-(4-methyl-5-oxo-4,5-dihydro-1H-tetrazol-1-yl)phenoxy)-2-methylpropanoate] | < 30 µM | 1.14 µM
17 | CC(O)COc1ccc(Nc2ncc(F)c(NC[C@@H]3CCCN4CCCC[C@H]34)n2)cc1C#N (stereo partly drawn) [Compound 145, 5-((5-fluoro-4-((((1S,9aR)-octahydro-2H-quinolizin-1-yl)methyl)amino)pyrimidin-2-yl)amino)-2-(2-hydroxypropoxy)benzonitrile] | < 30 µM | 4.63 µM
